Laboratory results taken from PMC6792352, “Limited Chemical Structural Diversity Found to Modulate Thyroid Hormone Receptor in the Tox21 Chemical Library” (Environmental Health Perspectives, 2019).
Structures can show the parent of a compound that is named as a salt.

Test: in vitro
Settings: rat, gh3-tre-luc cells

In the case of `[H]/N=C(/N)NS(=O)(=O)c1ccc(N)cc1` [Sulfaguanidine], the CC50 at 24 h (AC50 (uM) modified / 1000) is reported as > 20 µM.

With `COc1nccnc1NS(=O)(=O)c1ccc(N)cc1` [Sulfalene] the CC50 at 24 h (AC50 (uM) modified / 1000) was > 50 µM.

For `C=C(Cl)CSC(=S)N(CC)CC` [Sulfallate], the CC50 at 24 h (AC50 (uM) modified / 1000, Tox21_110001=Tox21_200042, viability, 1 nM T3 present, 24 h) was > 100 µM.

For `Cc1ccnc(NS(=O)(=O)c2ccc(N)cc2)n1` [Sulfamerazine], the CC50 at 24 h (AC50 (uM) modified / 1000) was > 20 µM.

In the case of `COc1cnc(NS(=O)(=O)c2ccc(N)cc2)nc1` [Sulfameter], the CC50 at 24 h (AC50 (uM) modified / 1000) is reported as > 20 µM.

For `Cc1cc(C)nc(NS(=O)(=O)c2ccc(N)cc2)n1` [Sulfamethazine], the CC50 at 24 h (AC50 (uM) modified / 1000) was > 90 µM.

In the case of `Cc1nnc(NS(=O)(=O)c2ccc(N)cc2)s1` [Sulfamethizole], the CC50 at 24 h (AC50 (uM) modified / 1000) is reported as > 50 µM.

With `COc1cc(NS(=O)(=O)c2ccc(N)cc2)nc(C)n1` [Sulfamethomidine] the CC50 at 24 h (AC50 (uM) modified / 1000) was > 50 µM.

With `COc1ccc(NS(=O)(=O)c2ccc(N)cc2)nn1` [Sulfamethoxypyridazine] the CC50 at 24 h (AC50 (uM) modified / 1000) was > 20 µM.

With `COc1cc(NS(=O)(=O)c2ccc(N)cc2)ncn1` [Sulfamonomethoxine] the CC50 at 24 h (AC50 (uM) modified / 1000) was > 20 µM.

With `CCN(CC)c1ccc(C(=C2C=CC(=[N+](CC)CC)C=C2)c2ccc(S(=O)(=O)O)cc2S(=O)(=O)[O-])cc1` [Sulfan blue] the CC50 at 24 h (AC50 (uM) modified / 1000) was > 90 µM.

In the case of `CC(=O)Nc1ccc(S(=O)(=O)Nc2ccc([N+](=O)[O-])cc2)cc1` [Sulfanitran], the CC50 at 24 h (AC50 (uM) modified / 1000) is reported as > 50 µM.

With `Nc1ccc(S(=O)(=O)Nc2ccnn2-c2ccccc2)cc1` [Sulfaphenazole] the CC50 at 24 h (AC50 (uM) modified / 1000) was > 20 µM.

With `Nc1ccc(S(=O)(=O)Nc2ccccn2)cc1` [Sulfapyridine] the CC50 at 24 h (AC50 (uM) modified / 1000) was > 20 µM.

In the case of `Nc1ccc(S(=O)(=O)Nc2cnc3ccccc3n2)cc1` [Sulfaquinoxaline], the CC50 at 24 h (AC50 (uM) modified / 1000) is reported as > 90 µM.

With `O=C(O)c1cc(/N=N/c2ccc(S(=O)(=O)Nc3ccccn3)cc2)ccc1O` [Sulfasalazine] the CC50 at 24 h (AC50 (uM) modified / 1000) was > 90 µM.

In the case of `NS(=O)(=O)c1ccc(NC(=O)CCC(=O)O)cc1` [Sulfasuccinamide], the CC50 at 24 h (AC50 (uM) modified / 1000) is reported as > 50 µM.

For `NC(=S)NS(=O)(=O)c1ccc(N)cc1` [Sulfathiourea], the CC50 at 24 h (AC50 (uM) modified / 1000) was > 50 µM.

With `Cc1nn(-c2cc(NS(C)(=O)=O)c(Cl)cc2Cl)c(=O)n1C(F)F` [Sulfentrazone] the CC50 at 24 h (AC50 (uM) modified / 1000) was > 90 µM.

In the case of `O=C1C(CC[S+]([O-])c2ccccc2)C(=O)N(c2ccccc2)N1c1ccccc1` (stereo not drawn) [Sulfinpyrazone], the CC50 at 24 h (AC50 (uM) modified / 1000) is reported as > 20 µM.

For `Cc1cc(NS(=O)(=O)c2ccc(N)cc2)nc(C)n1` [Sulfisomidine], the CC50 at 24 h (AC50 (uM) modified / 1000) was > 50 µM.

In the case of `Cc1noc(NS(=O)(=O)c2ccc(N)cc2)c1C` [Sulfisoxazole], the CC50 at 24 h (AC50 (uM) modified / 1000) is reported as > 50 µM.

With `O=C1OC(c2ccc(O)c(S(=O)(=O)O)c2)(c2ccc(O)c(S(=O)(=O)O)c2)c2c(Br)c(Br)c(Br)c(Br)c21` [Sulfobromophthalein] the CC50 at 24 h (AC50 (uM) modified / 1000) was > 50 µM.

In the case of `O=S1(=O)CCCC1` [Sulfolane], the CC50 at 24 h (AC50 (uM) modified / 1000) is reported as > 90 µM.

In the case of `COC(=O)c1ccccc1S(=O)(=O)NC(=O)Nc1nc(C)cc(C)n1` [Sulfometuron-methyl], the CC50 at 24 h (AC50 (uM) modified / 1000, Tox21_110001=Tox21_301843, viability, 1 nM T3 present, 24 h) is reported as > 90 µM.

For `CCC(C)(S(=O)(=O)CC)S(=O)(=O)CC` [Sulfonethylmethane], the CC50 at 24 h (AC50 (uM) modified / 1000, Tox21_110001=Tox21_112153, viability, 1 nM T3 present, 24 h) was > 50 µM.

In the case of `CCS(=O)(=O)C(C)(C)S(=O)(=O)CC` [Sulfonmethane], the CC50 at 24 h (AC50 (uM) modified / 1000, Tox21_110001=Tox21_112150, viability, 1 nM T3 present, 24 h) is reported as > 50 µM.

For `O=C(O)CC(C(=O)O)S(=O)(=O)O` (stereo not drawn) [Sulfosuccinic acid], the CC50 at 24 h (AC50 (uM) modified / 1000) was > 90 µM.

With `CCOP(=S)(OCC)OP(=S)(OCC)OCC` [Sulfotepp] the CC50 at 24 h (AC50 (uM) modified / 1000, Tox21_110001=Tox21_201756, viability, 1 nM T3 present, 24 h) was > 90 µM.

With `CCCCCCCCCOS(=O)(=O)O` [Sulfuric acid, monononyl ester, sodium salt] the CC50 at 24 h (AC50 (uM) modified / 1000) was > 90 µM.

For `CSc1ccc(/C=C2/C(C)=C(CC(=O)O)c3cc(F)ccc32)cc1` [Sulindac sulfide], the CC50 at 24 h (AC50 (uM) modified / 1000) was > 50 µM.

For `CC1=C(CC(=O)O)c2cc(F)ccc2/C1=C\c1ccc(S(C)(=O)=O)cc1` [Sulindac sulfone], the CC50 at 24 h (AC50 (uM) modified / 1000) was > 50 µM.

With `CC1=C(CC(=O)O)c2cc(F)ccc2/C1=C\c1ccc([S+](C)[O-])cc1` (stereo not drawn) [Sulindac] the CC50 at 24 h (AC50 (uM) modified / 1000) was > 90 µM.

In the case of `COc1cc(O)c(C(=O)c2ccccc2)cc1S(=O)(=O)O` [Sulisobenzone], the CC50 at 24 h (AC50 (uM) modified / 1000) is reported as > 90 µM.

With `COc1cc([S+](C)[O-])ccc1-c1nc2ncccc2[nH]1` (stereo not drawn) [Sulmazole] the CC50 at 24 h (AC50 (uM) modified / 1000) was > 50 µM.

For `CCN1CCCC1CNC(=O)c1cc(S(N)(=O)=O)ccc1OC` (stereo not drawn) [Sulpiride], the CC50 at 24 h (AC50 (uM) modified / 1000) was > 90 µM.
